# Assay results from PMC7954794, “Protein context shapes the specificity of SH3 domain-mediated interactions in vivo” (Nature Communications, 2021).
# Test system: 575 putative partners (preys) of 22 WT SH3-containing proteins
# Assay: DHFR-PCA on solid medium, WT and SH3-deleted baits (Fig. 1B)
# Format: cell-based, Saccharomyces cerevisiae
# Design: key to Score: 0: SH3-independent; 1: SH3-dependent PPIs; 2: SH3-inhibited PPIs
# Conditions: for SH3-dependent PPIs: number of PPIs, SH3 domain in its own protein, DHFR-PCA, Fig2D,S2F
# In short: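 In S. cerevisiae, 22 SH3-containing baits fused genomically to DHFR F[1,2], either WT or with each SH3 replaced via CRISPR by a poly-Gly/Ser linker, screened against 575 DHFR F[3] preys plus 40 negative controls in 1536 arrays, preys duplicated at randomized positions.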
Substance,"medrep (log2 median colony size normalized to plate background, PCA score) (bait SLA1-3, DHFR-PCA, label = prey, Replicates 4 (2 for YCR009C, YDR388W, YIL033C))","Score (bait SLA1-3, label = prey)",SH3-dependent PPIs
YAL005C,5.601,0,–
CDC25,–,–,3
RVS167,–,–,31
